According to patent US11771662B2, “Analgesic formulation for control of pain in dogs” (Kansas State University Research Foundation, priority 2017, dated 2023):
Where two headings read alike, the source gives them in different places.

Columns and labels:
healthy Beagle dogs = experiment: Rectal temperature as marker of central opioid effects, methadone/fluconazole with or without naltrexone (Example II); format: in vivo, dog; conditions: naltrexone 0.25 mg/kg PO added to methadone 1 mg/kg and fluconazole 5 mg/kg PO
Text: (§1) Twelve healthy Beagle dogs were divided into two groups of 6 each in a parallel study design. […] Rectal temperature was monitored as a marker of central opioid effects throughout the study.

[1] = group administered naltrexone 0.25 mg/kg PO with methadone and fluconazole
Text: as §1

[2] = Plasma methadone, fluconazole, naltrexone and naltrexone metabolite concentrations (Example IV)
Text: Anesthesia was monitored by licensed veterinary technicians.

[3] = Plasma methadone, naltrexone and naltrexone metabolites, multiple oral doses (Example III); format: in vivo, dog; conditions: multiple oral doses of methadone/fluconazole/naltrexone formulation
Text: Twelve healthy Beagle dogs were divided into two groups of 6 each in a parallel study design. […] Group 1 simulated a patient dropped off the night before surgery, while Group 2 simulated a patient dropped off in the morning for same day early afternoon surgery. Rectal temperature was monitored as a marker of central opioid effects throughout the study and von Frey thresholds were obtained to assess the antinociceptive effects.

SMILES: O=C1CC[C@@]2(O)[C@H]3Cc4ccc(O)c5c4[C@@]2(CCN3CC2CC2)[C@H]1O5 [naltrexone]
- Effect of addition of naltrexone on central opioid effects of methadone with fluconazole (healthy Beagle dogs): did not affect the central opioid effects
- Plasma detection of analyte relative to LOQ of the assay (1 ng/mL) [1]: rarely detected above the LOQ
- Plasma detection of analyte ([2]; any group): not detected in any plasma sample from any group
- Plasma detection of analyte relative to LOQ of the assay (1 ng/mL) [3]: rarely detected above the LOQ

SMILES: Oc1ccc2c3c1O[C@H]1[C@H](O)CC[C@@]4(O)[C@@H](C2)N(CC2CC2)CC[C@]314 [β-naltrexol]
- Highest measured plasma concentration ([2]; oral methadone groups): 1.7 ng/mL

SMILES: O=C(O)[C@H]1O[C@@H](Oc2ccc3c4c2O[C@H]2C(=O)CC[C@@]5(O)[C@@H](C3)N(CC3CC3)CC[C@]425)[C@H](O)[C@@H](O)[C@@H]1O [naltrexone glucuronide]
- Plasma detection of analyte [1]: detected
- Plasma detection of analyte ([2]; oral methadone groups): measured in most of the samples
- Plasma detection of analyte [3]: detected in both groups
